From ChEMBL document CHEMBL3885881, “DrugMatrix”

Organism: Rattus norvegicus
Assay: DrugMatrix - Regimen: Daily Repeat
Type: toxicity, organism-based, Sprague-Dawley
Set-up: regimen Daily Repeat, gender Male, age 6-8 weeks
Details: in vivo, iv, vehicle 100 % SALINE; for ABSOLUTE BASOPHIL / ABSOLUTE EOSINOPHIL / ABSOLUTE LYMPHOCYTE / ABSOLUTE MONOCYTE / ABSOLUTE SEGMENTED NEUTROPHIL / BASOPHIL / EOSINOPHIL / ERYTHROCYTE COUNT / HEMATOCRIT / HEMOGLOBIN / LEUKOCYTE COUNT / LYMPHOCYTE / MEAN CORPUSCULAR HEMOGLOBIN / MEAN CORPUSCULAR HEMOGLOBIN CONCENTRATION / MEAN CORPUSCULAR VOLUME / MONOCYTE / NEUTROPHIL / NUCLEATED RED BLOOD CELLS / PLATELET COUNT: tissue Blood; for ALANINE AMINOTRANSFERASE / ALBUMIN / ALKALINE PHOSPHATASE / ASPARTATE AMINOTRANSFERASE / BLOOD UREA NITROGEN / CARBON DIOXIDE / CHLORIDE / CHOLESTEROL / CREATINE PHOSPHOKINASE / CREATININE / GLUCOSE / LACTATE DEHYDROGENASE / LIPASE / PHOSPHORUS / POTASSIUM / SODIUM / TOTAL BILIRUBIN / TOTAL PROTEIN / URIC ACID: tissue Plasma
[1] = 3 mg/kg, 120 h, dose level Low, time 5 day
[2] = 54 mg/kg, 72 h, dose level High, time 3 day
[3] = 54 mg/kg, 120 h, dose level High, time 5 day

## O=c1[nH]c(=O)n([C@H]2C[C@H](O)[C@@H](CO)O2)cc1F [FLOXURIDINE]
[1]
  ABSOLUTE BASOPHIL: 0 CELLS/uL
  ABSOLUTE EOSINOPHIL: 0 CELLS/uL
  ABSOLUTE LYMPHOCYTE: 11533 CELLS/uL
  ABSOLUTE MONOCYTE: 174 CELLS/uL
  ABSOLUTE SEGMENTED NEUTROPHIL: 693 CELLS/uL
  BASOPHIL: 0%
  EOSINOPHIL: 0%
  ERYTHROCYTE COUNT: 5.61 x10E6/uL
  HEMATOCRIT: 34.57%
  HEMOGLOBIN: 13.83 G/DL
  LEUKOCYTE COUNT: 12.4 x10E3/uL
  LYMPHOCYTE: 93%
  MEAN CORPUSCULAR HEMOGLOBIN: 24.7 pg
  MEAN CORPUSCULAR HEMOGLOBIN CONCENTRATION: 40.03 G/DL
  MEAN CORPUSCULAR VOLUME: 61.73 fL
  MONOCYTE: 1.33%
  NEUTROPHIL: 5.67%
  NUCLEATED RED BLOOD CELLS: 0 /100WBC
  PLATELET COUNT: 883.33 x10E3/uL
  ALANINE AMINOTRANSFERASE: 53.33 u/L
  ALBUMIN: 4.33 G/DL
  ALKALINE PHOSPHATASE: 392.33 u/L
  ASPARTATE AMINOTRANSFERASE: 95.67 u/L
  BLOOD UREA NITROGEN: 18.67 mg/dL
  CARBON DIOXIDE: 26.33 mmol/L
  CHLORIDE: 102 MEQ/L
  CHOLESTEROL: 64.67 mg/dL
  CREATINE PHOSPHOKINASE: 328 u/L
  CREATININE: 0.28 mg/dL
  GLUCOSE: 167.33 mg/dL
  LACTATE DEHYDROGENASE: 433.67 u/L
  LIPASE: 10.33 u/L
  PHOSPHORUS: 11.63 mg/dL
  POTASSIUM: 6.75 MEQ/L
  SODIUM: 142.7 MEQ/L
  TOTAL BILIRUBIN: 0.23 mg/dL
  TOTAL PROTEIN: 5.93 G/DL
  URIC ACID: 1.83 mg/dL
[2]
  ABSOLUTE BASOPHIL: 0 CELLS/uL
  ABSOLUTE EOSINOPHIL: 0 CELLS/uL
  ABSOLUTE LYMPHOCYTE: 10754.33 CELLS/uL
  ABSOLUTE MONOCYTE: 75.67 CELLS/uL
  ABSOLUTE SEGMENTED NEUTROPHIL: 703.33 CELLS/uL
  BASOPHIL: 0%
  EOSINOPHIL: 0%
  ERYTHROCYTE COUNT: 5.48 x10E6/uL
  HEMATOCRIT: 33.43%
  HEMOGLOBIN: 13.3 G/DL
  LEUKOCYTE COUNT: 11.53 x10E3/uL
  LYMPHOCYTE: 93.33%
  MEAN CORPUSCULAR HEMOGLOBIN: 24.33 pg
  MEAN CORPUSCULAR HEMOGLOBIN CONCENTRATION: 39.83 G/DL
  MEAN CORPUSCULAR VOLUME: 61.17 fL
  MONOCYTE: 0.67%
  NEUTROPHIL: 6%
  NUCLEATED RED BLOOD CELLS: 0 /100WBC
  PLATELET COUNT: 1073.67 x10E3/uL
  ALANINE AMINOTRANSFERASE: 48.33 u/L
  ALBUMIN: 4.13 G/DL
  ALKALINE PHOSPHATASE: 268 u/L
  ASPARTATE AMINOTRANSFERASE: 81.67 u/L
  BLOOD UREA NITROGEN: 19 mg/dL
  CARBON DIOXIDE: 28.67 mmol/L
  CHLORIDE: 103.33 MEQ/L
  CHOLESTEROL: 68.33 mg/dL
  CREATINE PHOSPHOKINASE: 307.67 u/L
  CREATININE: 0.18 mg/dL
  GLUCOSE: 150.67 mg/dL
  LACTATE DEHYDROGENASE: 152.33 u/L
  LIPASE: 10.33 u/L
  PHOSPHORUS: 9.83 mg/dL
  POTASSIUM: 5.66 MEQ/L
  SODIUM: 141.27 MEQ/L
  TOTAL BILIRUBIN: 0.2 mg/dL
  TOTAL PROTEIN: 5.67 G/DL
  URIC ACID: 1.2 mg/dL
[3]
  ABSOLUTE BASOPHIL: 0 CELLS/uL
  ABSOLUTE EOSINOPHIL: 0 CELLS/uL
  ABSOLUTE LYMPHOCYTE: 10553 CELLS/uL
  ABSOLUTE MONOCYTE: 101.33 CELLS/uL
  ABSOLUTE SEGMENTED NEUTROPHIL: 445.67 CELLS/uL
  BASOPHIL: 0%
  EOSINOPHIL: 0%
  ERYTHROCYTE COUNT: 4.83 x10E6/uL
  HEMATOCRIT: 31%
  HEMOGLOBIN: 12.7 G/DL
  LEUKOCYTE COUNT: 11.1 x10E3/uL
  LYMPHOCYTE: 95%
  MEAN CORPUSCULAR HEMOGLOBIN: 26.57 pg
  MEAN CORPUSCULAR HEMOGLOBIN CONCENTRATION: 41.07 G/DL
  MEAN CORPUSCULAR VOLUME: 64.57 fL
  MONOCYTE: 1%
  NEUTROPHIL: 4%
  NUCLEATED RED BLOOD CELLS: 0 /100WBC
  PLATELET COUNT: 1207.33 x10E3/uL
  ALANINE AMINOTRANSFERASE: 45 u/L
  ALBUMIN: 4.17 G/DL
  ALKALINE PHOSPHATASE: 347 u/L
  ASPARTATE AMINOTRANSFERASE: 84 u/L
  BLOOD UREA NITROGEN: 17.67 mg/dL
  CARBON DIOXIDE: 26.67 mmol/L
  CHLORIDE: 102.33 MEQ/L
  CHOLESTEROL: 52.67 mg/dL
  CREATINE PHOSPHOKINASE: 429.33 u/L
  CREATININE: 0.12 mg/dL
  GLUCOSE: 154 mg/dL
  LACTATE DEHYDROGENASE: 306 u/L
  LIPASE: 9.33 u/L
  PHOSPHORUS: 9.83 mg/dL
  POTASSIUM: 5.61 MEQ/L
  SODIUM: 142.1 MEQ/L
  TOTAL BILIRUBIN: 0.17 mg/dL
  TOTAL PROTEIN: 5.53 G/DL
  URIC ACID: 1.5 mg/dL
